# From patent US20220324835A1 (Nurix Therapeutics, Inc., priority 2018, published 2022)
# Legend:
# [1] = test system: T-cells; assay: In vivo activity: CD25 expression on CD4+ or CD8+ T-cells of mice stimulated with anti-CD3 antibody; conditions: 2 μg anti-CD3 antibody, 24 hours
# Method in brief: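 C57BL/6 or BALB/c mice dosed with inhibitor (IV, IP, SC or PO, e.g. BID or TID), then stimulated with 2 μg anti-CD3 antibody. Plasma IL-2, IFNγ, TNFα at 8 h and CD25 on CD4+/CD8+ T-cells by flow cytometry at 24 h; fold change over vehicle plus anti-CD3, binned A–E.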
# [2] = test system: T-cell; assay: IL-2 secretion from T-cells stimulated with anti-CD3 antibody alone (Biological Example 2); type: cell-based; conditions: primary human total T-cells, read-out: IL-2 secretion, Anti-CD3 stimulation, fold change over baseline; for fold induction at 1 µM: 1 μM compound; for fold induction at 8 µM: 8 μM compound
smiles,measurement,setting,value
"C[C@H](Cc1nncn1C)c1cccc(NC(=O)c2ccnc(C(F)(F)F)n2)c1 [Compound 187, (R)-N-(3-(1-(4-methyl-4H-1,2,4-triazol-3-yl)propan-2-yl)phenyl)-2-(trifluoromethyl)pyrimidine-4-carboxamide]",CD4+ T-cell % CD25+,[1]; 90 mpk IP BID,C (C indicates 1.51-2.00)
same,CD8+ T-cell % CD25+,[1]; 90 mpk IP BID,D (D indicates 1.00-1.50)
"Cn1cnnc1[C@@H]1C[C@@H]1c1cccc(N2Cc3c(cccc3C(F)(F)F)C2=O)c1 [Compound 282, 2-(3-((1S,2R)-2-(4-methyl-4H-1,2,4-triazol-3-yl)cyclopropyl)phenyl)-4-(trifluoromethyl)isoindolin-1-one]",CD4+ T-cell % CD25+,[1]; 90 mpk PO BID,D (D indicates 1.00-1.50)
same,CD8+ T-cell % CD25+,[1]; 90 mpk PO BID,D (D indicates 1.00-1.50)
same,CD4+ T-cell % CD25+,[1]; 135 mpk PO BID,C (C indicates 1.51-2.00)
same,CD8+ T-cell % CD25+,[1]; 135 mpk PO BID,D (D indicates 1.00-1.50)
same,CD4+ T-cell % CD25+,[1]; 180 mpk PO BID,B (B indicates 2.01-2.50)
same,CD8+ T-cell % CD25+,[1]; 180 mpk PO BID,D (D indicates 1.00-1.50)
"Cn1cnnc1[C@@H]1C[C@@H]1c1cccc(N2Cc3c(ccnc3C(F)(F)F)C2=O)c1 [Compound 369, 2-{3-[(1S,2R)-2-(4-methyl-4H-1,2,4-triazol-3-yl)cyclopropyl]phenyl}-4-(trifluoromethyl)-1H,2H,3H-pyrrolo[3,4-c]pyridin-1-one]",fold induction at 1 µM,[2],0.051 to 0.1
same,fold induction at 8 µM,[2],0.101 to 0.15
"Cc1cc2c(c(C3CC3)n1)CN(c1cccc([C@H](C)Cc3nncn3C)c1)C2=O [Compound 372, 4-cyclopropyl-6-methyl-2-{3-[(2R)-1-(4-methyl-4H-1,2,4-triazol-3-yl)propan-2-yl]phenyl}-1H,2H,3H-pyrrolo[3,4-c]pyridin-1-one]",fold induction at 1 µM,[2],0.051 to 0.1
same,fold induction at 8 µM,[2],0.101 to 0.15
"CNCc1ccc(C(=O)Nc2cccc([C@H](C)Cc3nncn3C)c2)nc1C1CC1 [Compound 376, (R)-6-cyclopropyl-N-(3-(1-(4-methyl-4H-1,2,4-triazol-3-yl)propan-2-yl)phenyl)-5-((methylamino)methyl)picolinamide]",fold induction at 1 µM,[2],0.101 to 0.15
same,fold induction at 8 µM,[2],> 0.201
